Reference: patent publication US20180000778A1, “SMALL MOLECULE ANTAGONISTS OF DUSP5 AND METHODS OF USE” (THE MEDICAL COLLEGE OF WISCONSIN, INC., priority 2015, published 2018)

Legend:
[1] = test system: normal vasculature in a developing embryo; assay: Effect on normal vasculature in a developing embryo
[2] = molecular target: T1, full-length DUSP5 (Homo sapiens, UniProt Q16690); assay: ERK dephosphorylation assay, full-length DUSP5 with pERK2 substrate, western blot; type: biochemical
T1 construct: an assay was development using ERK2 and full-length DUSP5
T1 sequence (Q16690 1-384): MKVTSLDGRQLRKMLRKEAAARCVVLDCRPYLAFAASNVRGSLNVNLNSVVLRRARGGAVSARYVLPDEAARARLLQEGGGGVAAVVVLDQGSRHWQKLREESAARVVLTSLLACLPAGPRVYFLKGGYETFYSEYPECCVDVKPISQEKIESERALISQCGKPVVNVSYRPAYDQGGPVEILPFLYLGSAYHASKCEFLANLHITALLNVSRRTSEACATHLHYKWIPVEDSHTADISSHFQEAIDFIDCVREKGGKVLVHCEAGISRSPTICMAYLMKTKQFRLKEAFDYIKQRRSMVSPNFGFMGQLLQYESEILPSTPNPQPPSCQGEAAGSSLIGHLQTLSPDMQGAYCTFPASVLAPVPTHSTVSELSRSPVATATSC
Experimental: ERK Dephosphorylation Assay.
For this assay, 10 ng of GST-tagged recombinant phosphorylated ERK2 (R&D Systems, 1230-KS) was incubated with and without the indicated DUSP5 proteins (0.5 nM final concentration) for 15 min at room temperature, with or without the indicated drugs. The reactions were halted with 2× Laemmli sample buffer and subjected to SDS-PAGE. The proteins were transferred to polyvinylidene difluoride (PVDF) and immunoblotted using antibodies to pERK (Cell Signaling Tech., #9106) and Total ERK (Cell Signaling Tech., #9102). Bound antibodies were visualized using horseradish peroxidase-linked anti-mouse IgG (Cell Signaling Tech, #7076S) and anti-rabbit IgG (Cell Signaling Tech, #7074S), respectively, and ECL reagents (Pierce, 34708) according to the manufacturer's protocol. IC50s were calculated using GraphPad Prism 6 software.
And, the native substrate for DUSP5 is the pERK2 protein, which is much larger and capable of a more complicated range of inter-molecular interactions that the pNPP substrate (which is intended only to mimic the phospho-tyrosine of pERK). […] To this end, an assay was development using ERK2 and full-length DUSP5, monitoring pERK levels in a western blot, as a function of pERK2 substrate concentration. […] This surprising increase in potency for CSD3-2320 (but not NTS) with full length DUSP5 underscores the importance of performing secondary assays with biologically relevant forms of enzyme and substrate.

[3] = test system: PP2A; assay: Phosphatase profiling, Biomol Green; type: biochemical; details: 30 μM, triplicate; negative = inhibition
Experimental: (§1) Assays were performed to profile compound CSDDD2320 against 21 phosphatase targets at 1 concentration (30 μM) in triplicate measurements. The aim was to identify whether the compound can affect the activity of the various phosphatase targets selected.
(§2) The PTPN6 (SHP1), PTPRF (LAR), PP1A, PP1B, PP2A, PTPN12(PTP-PEST), PTPN11(SHP2), CDC25A, CDC25B, CDC25C, PP2Ca, and PP2Cg phosphatase activity was determined by performing assays at 37° C. for 15 minutes in a final volume of 50 μl according to the following assay reaction recipe:
(§3) Component 1. 10 μl of diluted active protein phosphatase
(§4) Component 2. 5 μl of 1 mM tyrosine phosphopeptide-2 substrate (for PTPN6, PTPRF, PTPN12, and PTPN11) or threonine phosphopeptide substrate (for PP1A, PP1B, PP2A and PP2Cg) or PI(3,4,5)P3 substrate (for PTEN) or OMFP substrate (for CDC25A, CDC25B and CDC25C)
(§5) Component 3. 25 μl of phosphatase assay buffer
(§6) Component 4. 10 μl of compound (150 μM) or 10% DMSO
(§7) The assay was started by incubating the reaction mixture at 37° C. for 15 minutes. After the 15 minutes incubation period, the assay was terminated by the addition of 100 μl of Biomol Green reagent. The absorbance of the reaction solution was measured in a spectrophotometer at 650 nm. Blank control was set up that included all the assay components except the addition of the tyrosine phosphopeptide-2 substrate or related substrate (replace with equal volume of phosphatase assay buffer). The corrected activity for various phosphatase targets was determined by removing the blank control value.

[4] = molecular target: PTPN11 (SHP2) (Homo sapiens, UniProt Q06124); assay: Phosphatase profiling, Biomol Green; type: biochemical; details: 30 μM, triplicate; positive = activation
PTPN11 (SHP2), sequence (Q06124 whole entry, species assumed): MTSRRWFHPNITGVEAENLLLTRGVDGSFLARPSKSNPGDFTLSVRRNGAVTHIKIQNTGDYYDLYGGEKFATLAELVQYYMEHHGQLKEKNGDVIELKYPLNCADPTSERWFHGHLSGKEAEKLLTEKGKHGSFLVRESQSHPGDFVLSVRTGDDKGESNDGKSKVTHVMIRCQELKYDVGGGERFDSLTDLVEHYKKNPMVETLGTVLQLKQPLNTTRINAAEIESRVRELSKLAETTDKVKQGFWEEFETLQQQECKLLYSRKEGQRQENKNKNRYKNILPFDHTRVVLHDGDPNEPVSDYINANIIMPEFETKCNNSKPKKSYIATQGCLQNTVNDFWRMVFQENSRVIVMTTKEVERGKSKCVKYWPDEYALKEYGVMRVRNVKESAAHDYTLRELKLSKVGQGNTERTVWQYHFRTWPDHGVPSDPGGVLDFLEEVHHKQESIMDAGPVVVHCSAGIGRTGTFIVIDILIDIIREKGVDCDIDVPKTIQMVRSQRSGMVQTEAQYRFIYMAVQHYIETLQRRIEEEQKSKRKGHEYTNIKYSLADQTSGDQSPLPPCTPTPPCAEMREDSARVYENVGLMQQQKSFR
Experimental: as §1, §2, §3, §4, §5, §6, §7

[5] = molecular target: PP1B (Homo sapiens, UniProt P62140); assay: Phosphatase profiling, Biomol Green; type: biochemical; details: 30 μM, triplicate; negative = inhibition
PP1B, sequence (P62140 whole entry, species assumed): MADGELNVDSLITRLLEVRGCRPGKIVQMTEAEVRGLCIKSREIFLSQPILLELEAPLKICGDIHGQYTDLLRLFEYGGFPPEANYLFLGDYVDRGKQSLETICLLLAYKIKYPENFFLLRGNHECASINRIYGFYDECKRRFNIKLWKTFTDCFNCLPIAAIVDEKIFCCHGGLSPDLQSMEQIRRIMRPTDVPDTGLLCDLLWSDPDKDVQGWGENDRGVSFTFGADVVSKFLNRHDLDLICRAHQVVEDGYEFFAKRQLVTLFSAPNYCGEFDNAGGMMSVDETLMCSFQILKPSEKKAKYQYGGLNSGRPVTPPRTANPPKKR
Experimental: as §1, §2, §3, §4, §5, §6, §7

[6] = molecular target: PP2Ca (Homo sapiens, UniProt P35813); assay: Phosphatase profiling, Biomol Green; type: biochemical; details: 30 μM, triplicate; negative = inhibition
Experimental: as §1, §2, §3, §4, §5, §6, §7

[7] = molecular target: PP1A (Homo sapiens, UniProt P62136); assay: Phosphatase profiling, Biomol Green; type: biochemical; details: 30 μM, triplicate; negative = inhibition
PP1A, sequence (P62136 whole entry, species assumed): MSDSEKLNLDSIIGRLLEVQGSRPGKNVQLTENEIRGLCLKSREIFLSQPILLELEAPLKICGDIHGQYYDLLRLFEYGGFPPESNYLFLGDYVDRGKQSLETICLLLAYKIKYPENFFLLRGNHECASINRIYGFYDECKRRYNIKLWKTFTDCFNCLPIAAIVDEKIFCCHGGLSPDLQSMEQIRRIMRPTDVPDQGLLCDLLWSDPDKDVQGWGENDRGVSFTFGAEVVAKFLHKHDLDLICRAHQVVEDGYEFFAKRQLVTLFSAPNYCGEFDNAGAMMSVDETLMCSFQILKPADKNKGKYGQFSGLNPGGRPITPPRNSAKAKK
Experimental: as §1, §2, §3, §4, §5, §6, §7

[8] = molecular target: CDC25B (Homo sapiens, UniProt P30305); assay: Phosphatase profiling, Biomol Green; type: biochemical; details: 30 μM, triplicate
Experimental: as §1, §2, §3, §4, §5, §6, §7

[9] = molecular target: CDC25C (Homo sapiens, UniProt P30307); assay: Phosphatase profiling, Biomol Green; type: biochemical; details: 30 μM, triplicate; positive = activation
CDC25C, sequence (P30307 whole entry, species assumed): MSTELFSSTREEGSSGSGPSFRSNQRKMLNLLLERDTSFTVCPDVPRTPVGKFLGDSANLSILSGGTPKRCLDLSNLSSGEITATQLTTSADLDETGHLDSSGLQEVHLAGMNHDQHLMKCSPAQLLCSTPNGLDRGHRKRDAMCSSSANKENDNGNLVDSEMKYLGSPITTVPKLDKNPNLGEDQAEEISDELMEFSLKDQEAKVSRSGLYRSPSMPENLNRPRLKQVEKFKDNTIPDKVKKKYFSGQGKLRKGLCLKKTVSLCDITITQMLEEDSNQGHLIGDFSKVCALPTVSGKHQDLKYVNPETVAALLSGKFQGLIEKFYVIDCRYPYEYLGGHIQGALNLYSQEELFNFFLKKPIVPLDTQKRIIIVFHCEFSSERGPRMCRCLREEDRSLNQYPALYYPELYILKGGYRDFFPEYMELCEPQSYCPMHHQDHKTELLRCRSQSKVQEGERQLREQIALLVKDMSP
Experimental: as §1, §2, §3, §4, §5, §6, §7

[10] = molecular target: PP2Cg (Homo sapiens, UniProt O15355); assay: Phosphatase profiling, Biomol Green; type: biochemical; details: 30 μM, triplicate
Experimental: as §1, §2, §3, §4, §5, §6, §7

[11] = molecular target: PTPN6 (SHP1) (Homo sapiens, UniProt P29350); assay: Phosphatase profiling, Biomol Green; type: biochemical; details: 30 μM, triplicate; negative = inhibition
PTPN6 (SHP1), sequence (P29350 whole entry, species assumed): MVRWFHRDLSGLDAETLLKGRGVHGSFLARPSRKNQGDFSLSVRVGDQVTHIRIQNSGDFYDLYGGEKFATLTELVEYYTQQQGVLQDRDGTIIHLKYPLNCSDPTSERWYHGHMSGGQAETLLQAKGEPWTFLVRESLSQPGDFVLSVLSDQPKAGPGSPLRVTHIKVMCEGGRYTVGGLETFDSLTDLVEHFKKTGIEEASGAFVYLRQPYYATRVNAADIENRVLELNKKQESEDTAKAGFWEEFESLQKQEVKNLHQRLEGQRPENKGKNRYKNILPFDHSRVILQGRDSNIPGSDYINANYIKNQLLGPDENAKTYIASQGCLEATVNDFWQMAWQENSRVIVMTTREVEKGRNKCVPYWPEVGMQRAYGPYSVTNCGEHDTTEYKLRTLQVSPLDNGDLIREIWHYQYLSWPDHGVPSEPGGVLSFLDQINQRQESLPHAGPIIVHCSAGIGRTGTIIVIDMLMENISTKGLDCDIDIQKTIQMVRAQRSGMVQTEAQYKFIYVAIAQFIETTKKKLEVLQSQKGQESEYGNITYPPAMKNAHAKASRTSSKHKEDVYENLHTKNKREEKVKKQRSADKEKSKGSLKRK
Experimental: as §1, §2, §3, §4, §5, §6, §7

[12] = molecular target: PTPN12 (PTP-PEST) (Homo sapiens, UniProt Q05209); assay: Phosphatase profiling, Biomol Green; type: biochemical; details: 30 μM, triplicate; negative = inhibition
Experimental: as §1, §2, §3, §4, §5, §6, §7

[13] = molecular target: CDC25A (Homo sapiens, UniProt P30304); assay: Phosphatase profiling, Biomol Green; type: biochemical; details: 30 μM, triplicate; positive = activation
CDC25A, sequence (P30304 whole entry, species assumed): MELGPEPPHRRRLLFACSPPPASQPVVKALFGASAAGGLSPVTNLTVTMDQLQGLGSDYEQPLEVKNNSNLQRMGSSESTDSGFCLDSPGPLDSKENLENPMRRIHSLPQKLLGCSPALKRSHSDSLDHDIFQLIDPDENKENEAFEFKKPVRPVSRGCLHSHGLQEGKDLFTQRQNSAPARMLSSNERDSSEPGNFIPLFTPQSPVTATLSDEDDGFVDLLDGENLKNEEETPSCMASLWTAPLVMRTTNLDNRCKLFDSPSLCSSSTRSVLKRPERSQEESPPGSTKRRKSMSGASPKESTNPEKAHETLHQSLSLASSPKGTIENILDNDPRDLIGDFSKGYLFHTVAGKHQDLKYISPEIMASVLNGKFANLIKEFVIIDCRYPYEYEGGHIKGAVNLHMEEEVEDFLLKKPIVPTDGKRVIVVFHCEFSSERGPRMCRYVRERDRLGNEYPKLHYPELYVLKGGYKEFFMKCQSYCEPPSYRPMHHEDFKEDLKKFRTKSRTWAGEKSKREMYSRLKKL
Experimental: as §1, §2, §3, §4, §5, §6, §7

[14] = molecular target: PTPRF (LAR) (Homo sapiens, UniProt P10586); assay: Phosphatase profiling, Biomol Green; type: biochemical; details: 30 μM, triplicate
PTPRF (LAR), sequence (P10586 30-1907, species assumed): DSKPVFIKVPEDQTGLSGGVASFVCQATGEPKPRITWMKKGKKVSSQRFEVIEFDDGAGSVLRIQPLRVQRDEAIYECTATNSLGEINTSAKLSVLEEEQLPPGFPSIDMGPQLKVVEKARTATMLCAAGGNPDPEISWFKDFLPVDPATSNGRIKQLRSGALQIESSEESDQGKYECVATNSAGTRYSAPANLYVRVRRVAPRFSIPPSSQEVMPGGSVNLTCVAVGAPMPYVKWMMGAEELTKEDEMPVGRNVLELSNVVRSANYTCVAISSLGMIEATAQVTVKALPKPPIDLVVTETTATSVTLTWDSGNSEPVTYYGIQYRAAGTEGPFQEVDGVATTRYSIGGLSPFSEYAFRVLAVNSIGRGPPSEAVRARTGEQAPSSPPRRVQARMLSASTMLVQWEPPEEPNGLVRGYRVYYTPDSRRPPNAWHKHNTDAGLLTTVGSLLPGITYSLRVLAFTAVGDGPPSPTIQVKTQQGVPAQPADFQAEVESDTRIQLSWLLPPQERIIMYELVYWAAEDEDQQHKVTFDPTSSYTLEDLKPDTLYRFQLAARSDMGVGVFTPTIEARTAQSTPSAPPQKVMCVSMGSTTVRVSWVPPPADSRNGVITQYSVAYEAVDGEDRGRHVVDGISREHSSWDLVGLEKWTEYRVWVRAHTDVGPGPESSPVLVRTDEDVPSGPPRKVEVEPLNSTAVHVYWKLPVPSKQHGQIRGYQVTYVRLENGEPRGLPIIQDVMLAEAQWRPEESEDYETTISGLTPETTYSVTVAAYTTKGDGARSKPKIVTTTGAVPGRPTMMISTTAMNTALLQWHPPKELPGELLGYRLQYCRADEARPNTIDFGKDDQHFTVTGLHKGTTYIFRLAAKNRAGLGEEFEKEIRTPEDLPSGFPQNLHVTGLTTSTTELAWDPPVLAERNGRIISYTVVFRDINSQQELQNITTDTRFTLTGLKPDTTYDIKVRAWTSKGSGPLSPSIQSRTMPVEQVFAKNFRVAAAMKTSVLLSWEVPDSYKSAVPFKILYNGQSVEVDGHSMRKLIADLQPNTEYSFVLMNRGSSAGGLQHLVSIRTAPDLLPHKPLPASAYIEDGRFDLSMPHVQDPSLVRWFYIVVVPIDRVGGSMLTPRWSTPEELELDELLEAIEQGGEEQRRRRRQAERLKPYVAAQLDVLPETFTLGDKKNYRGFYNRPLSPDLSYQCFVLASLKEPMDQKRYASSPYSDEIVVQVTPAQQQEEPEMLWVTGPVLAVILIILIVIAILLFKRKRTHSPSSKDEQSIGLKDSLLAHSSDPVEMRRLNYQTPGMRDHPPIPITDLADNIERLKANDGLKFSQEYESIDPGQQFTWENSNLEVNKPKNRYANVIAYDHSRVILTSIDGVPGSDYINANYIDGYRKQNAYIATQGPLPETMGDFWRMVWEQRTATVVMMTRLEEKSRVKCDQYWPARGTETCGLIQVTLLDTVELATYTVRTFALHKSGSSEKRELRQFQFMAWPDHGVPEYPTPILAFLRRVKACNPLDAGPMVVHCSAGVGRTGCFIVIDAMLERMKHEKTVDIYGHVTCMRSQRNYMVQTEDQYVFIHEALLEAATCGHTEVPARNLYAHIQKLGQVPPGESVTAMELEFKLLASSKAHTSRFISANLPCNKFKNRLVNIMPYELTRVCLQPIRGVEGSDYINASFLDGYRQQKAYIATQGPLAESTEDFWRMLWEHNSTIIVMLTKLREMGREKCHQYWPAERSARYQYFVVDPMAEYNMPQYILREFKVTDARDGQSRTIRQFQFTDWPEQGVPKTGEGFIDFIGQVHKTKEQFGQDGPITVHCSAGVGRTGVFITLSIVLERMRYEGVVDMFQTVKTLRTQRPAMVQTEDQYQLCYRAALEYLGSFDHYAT
Experimental: as §1, §2, §3, §4, §5, §6, §7

[15] = molecular target: T2, DUSP5 (PD)-WT (Homo sapiens, UniProt Q16690); assay: Phosphatase inhibition profiles (Table 4), initial rates; type: biochemical; details: using ERK2 as substrate, read-out: IC50 DUSP5 (PD)-WT (mean ± SE)
T2 construct: hexa-histidine (N); made in house; host or cells: E. coli BL21(DE3)
T2 sequence (Q16690 178-319): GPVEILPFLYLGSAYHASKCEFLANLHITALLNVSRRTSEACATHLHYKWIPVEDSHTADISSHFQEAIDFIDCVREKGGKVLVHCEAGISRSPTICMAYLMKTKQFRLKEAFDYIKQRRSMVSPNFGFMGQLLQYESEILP

Compound	effect on normal vasculature [1]	activity in DUSP5:pERK assay, in words ([2]; in vitro, western blot)	% Change (activity change compared to control) [3] [%]	% Change (activity change compared to control) [4] [%]	% Change (activity change compared to control) [5] [%]	% Change (activity change compared to control) [6] [%]	% Change (activity change compared to control) [7] [%]	% Change (activity change compared to control) [8] [%]	% Change (activity change compared to control) [9] [%]	% Change (activity change compared to control) [10] [%]	% Change (activity change compared to control) [11] [%]	% Change (activity change compared to control) [12] [%]	% Change (activity change compared to control) [13] [%]	% Change (activity change compared to control) [14] [%]	IC50 [15] [µM]	fold increase in IC50 activity compared to NTS ([2]; DUSP5/pERK assay)	IC50 ([2]; full-length DUSP5, pERK substrate) [µM]	IC50 ([2]; full-length DUSP5, pERK/ERK2 substrate) [µM]
O=S(=O)([O-])c1ccc2[nH]c3c(S(=O)(=O)[O-])cc(S(=O)(=O)[O-])cc3c2c1.[Na+].[Na+].[Na+] [RR505, Carbazole-1,3,6-trisulfonic acid, Trisodium Salt]	does not appear to affect normal vasculature	sub-micromolar range	–	–	–	–	–	–	–	–	–	–	–	–	–	–	–	–
O=S(=O)(O)c1cc(O)c2c(S(=O)(=O)O)cccc2c1 [RR527]	–	–	−3	4	−1	−7	−3	0	4	0	−5	−1	7	0	> 1000	1,000 fold	0.538 ± 0.271	33
